Test results reported in US10947188B2, “Small molecule ferroptosis inducers” (THE TRUSTEES OF COLUMBIA UNIVERSITY IN THE CITY OF NEW YORK, priority 2016, dated 2021).

How the values were obtained:
HT-1080 = experiment: Modulatory profiling: Alamar Blue viability, lethal compound cotreated with death modulator (EC50, AUC); type: cell-based; parameters: AUC, modulator HT.3MA / AUC, modulator HT.ALLN / AUC HT.ATA / AUC HT.ActD / AUC HT.BHA / AUC HT.BHT / AUC HT.BocD / AUC HT.CHX / AUC HT.Co2+ / AUC HT.DPQ / AUC HT.EGTA / AUC HT.Lmim / AUC HT.NAD+ / AUC HT.Nec-1 / AUC HT.SP600125 / AUC HT.TLCK / AUC HT.U0126: unit not given beside the values; details: for AUC HT.ATA: HT-1080, modulator ATA; for AUC HT.ActD: HT-1080, modulator ActD; for AUC HT.BHA: HT-1080, modulator BHA; for AUC HT.BHT: HT-1080, modulator BHT; for AUC HT.BocD: HT-1080, modulator BocD; for AUC HT.CHX: HT-1080, modulator CHX; for AUC HT.Co2+: HT-1080, modulator Co2+; for AUC HT.CspA: HT-1080, modulator CspA; for AUC HT.DPQ: HT-1080, modulator DPQ; for AUC HT.EGTA: HT-1080, modulator EGTA; for AUC HT.Gd3+: HT-1080, modulator Gd3+; for AUC HT.LNAME: HT-1080, modulator LNAME; for AUC HT.Lmim: HT-1080, modulator Lmim; for AUC HT.NAD+: HT-1080, modulator NAD+; for AUC HT.NMMA: HT-1080, modulator NMMA; for AUC HT.Nec-1: HT-1080, modulator Nec-1; for AUC HT.Pepstatin: HT-1080, modulator Pepstatin; for AUC HT.SP600125: HT-1080, modulator SP600125; for AUC HT.TLCK: HT-1080, modulator TLCK; for AUC HT.U0126: HT-1080, modulator U0126; for HT.atoc (AUC) / HT.bCarotene (AUC) / HT.deferox (AUC) / HT.digoxin (AUC) / HT.trolox (AUC) / HT.zVAD (AUC): HT-1080; for HT.atoc (AUC): modulator atoc; for HT.bCarotene (AUC): modulator bCarotene; for HT.deferox (AUC): modulator deferox; for HT.digoxin (AUC): modulator digoxin; for HT.trolox (AUC): modulator trolox; for HT.zVAD (AUC): modulator zVAD; for AUC, modulator HT.3MA / AUC, modulator HT.ALLN: HT-1080 cells, modulatory profile value (AUC); for AUC, modulator HT.3MA: lethal compound cotreated with modulator 3MA; for AUC, modulator HT.ALLN: lethal compound cotreated with modulator ALLN; for AUC HT.BHA: reference of the scale not given here; for AUC HT.EGTA: reference of the scale not given here
BJeLR = experiment: as above; type: cell-based, human; parameters: AUC, modulator BJ.Gd3+ / AUC, modulator BJ.LNAME / AUC, modulator BJ.Lmin / AUC, modulator BJ.3MA / AUC, modulator BJ.ALLN / AUC, modulator BJ.Boc D / AUC, modulator BJ.CHX / AUC, modulator BJ.Co2+ / AUC, modulator BJ.Nec-1 / AUC, modulator BJ.Pepstatin / AUC, modulator BJ.TLCK / AUC, modulator BJ.atoc / AUC, modulator BJ.trolox / AUC, modulator BJ.zVAD: unit not given beside the values; details: BJeLR cells, modulatory profile value (AUC); for AUC, modulator BJ.3MA: lethal compound cotreated with modulator 3MA; for AUC, modulator BJ.ALLN: lethal compound cotreated with modulator ALLN; for AUC, modulator BJ.Boc D: lethal compound cotreated with modulator Boc D; for AUC, modulator BJ.CHX: lethal compound cotreated with modulator CHX; for AUC, modulator BJ.Co2+: lethal compound cotreated with modulator Co2+; for AUC, modulator BJ.DPQ: lethal compound cotreated with modulator DPQ; for AUC, modulator BJ.Gd3+: lethal compound cotreated with modulator Gd3+; for AUC, modulator BJ.LNAME: lethal compound cotreated with modulator LNAME; for AUC, modulator BJ.Lmin/NAD+: lethal compound cotreated with modulator Lmin/NAD+; for AUC, modulator BJ.Lmin: lethal compound cotreated with modulator Lmin; for AUC, modulator BJ.NAD+: lethal compound cotreated with modulator NAD+; for AUC, modulator BJ.NMMA: lethal compound cotreated with modulator NMMA; for AUC, modulator BJ.Nec-1: lethal compound cotreated with modulator Nec-1; for AUC, modulator BJ.Pepstatin: lethal compound cotreated with modulator Pepstatin; for AUC, modulator BJ.TLCK: lethal compound cotreated with modulator TLCK; for AUC, modulator BJ.atoc: lethal compound cotreated with modulator atoc; for AUC, modulator BJ.trolox: lethal compound cotreated with modulator trolox; for AUC, modulator BJ.zVAD: lethal compound cotreated with modulator zVAD; for AUC, modulator BJ.3MA: reference of the scale not given here; for AUC, modulator BJ.ALLN: reference of the scale not given here; for AUC, modulator BJ.Boc D: reference of the scale not given here; for AUC, modulator BJ.CHX: reference of the scale not given here; for AUC, modulator BJ.Co2+: reference of the scale not given here; for AUC, modulator BJ.DPQ: reference of the scale not given here; for AUC, modulator BJ.Gd3+: reference of the scale not given here; for AUC, modulator BJ.LNAME: reference of the scale not given here; for AUC, modulator BJ.NAD+: reference of the scale not given here; for AUC, modulator BJ.NMMA: reference of the scale not given here; for AUC, modulator BJ.Nec-1: reference of the scale not given here; for AUC, modulator BJ.Pepstatin: reference of the scale not given here; for AUC, modulator BJ.TLCK: reference of the scale not given here

Q: What does the source list for `OCCNCC(O)Cn1c2ccc(Br)cc2c2cc(Br)ccc21` (centres unmarked) [CIL7]?
A: AUC HT.ATA (HT-1080): −0.01671; AUC HT.ActD (HT-1080): −0.01197; AUC HT.BHA (HT-1080): −0.06352; AUC HT.BHT (HT-1080): −0.103; AUC HT.BocD (HT-1080): 0.07799; AUC HT.CHX (HT-1080): 0.0511; AUC HT.Co2+ (HT-1080): 0.1062; AUC HT.CspA (HT-1080): −0.06441; AUC HT.DPQ (HT-1080): 0.005254; AUC HT.EGTA (HT-1080): 0.006456; AUC HT.Gd3+ (HT-1080): −0.02982; AUC HT.LNAME (HT-1080): 0.01998; AUC HT.Lmim (HT-1080): −0.002674; AUC HT.NAD+ (HT-1080): 0.07707; AUC HT.NMMA (HT-1080): −0.02442; AUC HT.Nec-1 (HT-1080): 0.007138; AUC HT.Pepstatin (HT-1080): −0.00124; AUC HT.SP600125 (HT-1080): −0.04155; AUC HT.TLCK (HT-1080): −0.01113; AUC HT.U0126 (HT-1080): 0.01556; HT.atoc (AUC) (HT-1080): 0.02896; HT.bCarotene (AUC) (HT-1080): −0.0174; HT.deferox (AUC) (HT-1080): −0.05071; HT.digoxin (AUC) (HT-1080): 0.003869; HT.trolox (AUC) (HT-1080): −0.006321; HT.zVAD (AUC) (HT-1080): −0.03773; AUC, modulator HT.3MA (HT-1080): −0.004626; AUC, modulator HT.ALLN (HT-1080): 0.1136; AUC, modulator BJ.3MA (BJeLR): 0.09188; AUC, modulator BJ.ALLN (BJeLR): −0.02876; AUC, modulator BJ.Boc D (BJeLR): −0.04946; AUC, modulator BJ.CHX (BJeLR): −0.01056; AUC, modulator BJ.Co2+ (BJeLR): 0.09999; AUC, modulator BJ.DPQ (BJeLR): 0.06721; AUC, modulator BJ.Gd3+ (BJeLR): −0.01897; AUC, modulator BJ.LNAME (BJeLR): −0.03182; AUC, modulator BJ.Lmin/NAD+ (BJeLR): 0.01771; AUC, modulator BJ.Lmin (BJeLR): 0.01256; AUC, modulator BJ.NAD+ (BJeLR): 0.009046; AUC, modulator BJ.NMMA (BJeLR): −0.01533; AUC, modulator BJ.Nec-1 (BJeLR): 0.02534; AUC, modulator BJ.Pepstatin (BJeLR): 0.06231; AUC, modulator BJ.TLCK (BJeLR): −0.02373; AUC, modulator BJ.atoc (BJeLR): 0.0008495; AUC, modulator BJ.trolox (BJeLR): 0.0424; AUC, modulator BJ.zVAD (BJeLR): −0.05834

Q: Which “AUC HT.ATA” value (HT-1080) does the source give for `CC(C)C1CC(CCNCc2ccc3c(c2)OCO3)(c2ccccc2)CCO1` (centres unmarked) [CIL51] here?
A: 0.003579

Q: And the “AUC HT.ActD” value (HT-1080)?
A: 0.02697

Q: What about the “AUC HT.BHA” value (HT-1080) of the same molecule?
A: −0.07965

Q: What about the “AUC HT.BHT” value (HT-1080) of the same molecule?
A: −0.08488

Q: What about the “AUC HT.BocD” value (HT-1080) of the same molecule?
A: −0.01458

Q: And the “AUC HT.CHX” value (HT-1080)?
A: 0.08663

Q: What about the “AUC HT.Co2+” value (HT-1080) of the same molecule?
A: 0.03908

Q: What about the “AUC HT.CspA” value (HT-1080) of the same molecule?
A: 0.00675

Q: What about the “AUC HT.DPQ” value (HT-1080) of the same molecule?
A: 0.0109

Q: What about the “AUC HT.EGTA” value (HT-1080) of the same molecule?
A: 0.04897

Q: And the “AUC HT.Gd3+” value (HT-1080)?
A: 0.003288

Q: And the “AUC HT.LNAME” value (HT-1080)?
A: 0.01091

Q: And the “AUC HT.Lmim” value (HT-1080)?
A: 0.01293

Q: And the “AUC HT.NAD+” value (HT-1080)?
A: 0.04394

Q: And the “AUC HT.NMMA” value (HT-1080)?
A: 0.01562

Q: What about the “HT.atoc (AUC)” value (HT-1080) of the same molecule?
A: 0.05135

Q: What about the “HT.bCarotene (AUC)” value (HT-1080) of the same molecule?
A: 0.03796

Q: And the “HT.deferox (AUC)” value (HT-1080)?
A: 0.004062

Q: What about the “HT.digoxin (AUC)” value (HT-1080) of the same molecule?
A: −0.03821

Q: What about the “HT.trolox (AUC)” value (HT-1080) of the same molecule?
A: −0.01257

Q: What about the “HT.zVAD (AUC)” value (HT-1080) of the same molecule?
A: 0.007799

Q: And the “AUC, modulator BJ.3MA” value (BJeLR)?
A: 0.05908

Q: And the “AUC, modulator BJ.ALLN” value (BJeLR)?
A: −0.2032

Q: What about the “AUC, modulator BJ.Boc D” value (BJeLR) of the same molecule?
A: −0.0008828

Q: And the “AUC, modulator BJ.CHX” value (BJeLR)?
A: 0.1696

Q: And the “AUC, modulator BJ.Co2+” value (BJeLR)?
A: 0.06399

Q: And the “AUC, modulator BJ.DPQ” value (BJeLR)?
A: 0.04077

Q: And the “AUC, modulator BJ.Gd3+” value (BJeLR)?
A: 0.03263

Q: And the “AUC, modulator BJ.LNAME” value (BJeLR)?
A: −0.04145

Q: And the “AUC, modulator BJ.Lmin/NAD+” value (BJeLR)?
A: 0.03468

Q: And the “AUC, modulator BJ.Lmin” value (BJeLR)?
A: −0.07413

Q: And the “AUC, modulator BJ.NAD+” value (BJeLR)?
A: −0.01737

Q: What about the “AUC, modulator BJ.NMMA” value (BJeLR) of the same molecule?
A: 0.003016

Q: What about the “AUC, modulator BJ.Nec-1” value (BJeLR) of the same molecule?
A: 0.03451

Q: And the “AUC, modulator BJ.Pepstatin” value (BJeLR)?
A: −0.06742

Q: What about the “AUC, modulator BJ.TLCK” value (BJeLR) of the same molecule?
A: −0.04421

Q: What does the source list for `COc1cc([C@@H]2c3cc4c(cc3[C@@H](O[C@@H]3O[C@@H]5CO[C@@H](C)O[C@H]5[C@H](O)[C@H]3O)[C@H]3COC(=O)[C@H]23)OCO4)cc(OC)c1O` [Etoposide]?
A: AUC HT.ATA (HT-1080): −0.0363; AUC HT.ActD (HT-1080): −0.09944; AUC HT.BHA (HT-1080): 0.04757; AUC HT.BHT (HT-1080): −0.0005481; AUC HT.BocD (HT-1080): 0.05886; AUC HT.CHX (HT-1080): 0.113; AUC HT.Co2+ (HT-1080): 0.3926; AUC HT.CspA (HT-1080): −0.177; AUC HT.DPQ (HT-1080): 0.006422; AUC HT.EGTA (HT-1080): 0.02457; AUC HT.Gd3+ (HT-1080): 0.02668; AUC HT.LNAME (HT-1080): 0.005444; AUC HT.Lmim (HT-1080): 0.05001; AUC HT.NAD+ (HT-1080): 0.0527; AUC HT.NMMA (HT-1080): 0.01603; AUC HT.Nec-1 (HT-1080): −0.005949; AUC HT.Pepstatin (HT-1080): −0.001737; AUC HT.SP600125 (HT-1080): 0.00478; AUC HT.TLCK (HT-1080): 0.1489; AUC HT.U0126 (HT-1080): −0.02627; HT.atoc (AUC) (HT-1080): −0.006276; HT.bCarotene (AUC) (HT-1080): 0.00393; HT.deferox (AUC) (HT-1080): 0.1428; HT.digoxin (AUC) (HT-1080): 0.1311; HT.trolox (AUC) (HT-1080): 0.01328; HT.zVAD (AUC) (HT-1080): 0.03817; AUC, modulator HT.3MA (HT-1080): 0.007208; AUC, modulator HT.ALLN (HT-1080): 0.03277; AUC, modulator BJ.3MA (BJeLR): −0.06196; AUC, modulator BJ.ALLN (BJeLR): 0.06099; AUC, modulator BJ.Boc D (BJeLR): 0.0612; AUC, modulator BJ.CHX (BJeLR): 0.1255; AUC, modulator BJ.Co2+ (BJeLR): 0.0951; AUC, modulator BJ.DPQ (BJeLR): −0.0469; AUC, modulator BJ.Gd3+ (BJeLR): 0.01317; AUC, modulator BJ.LNAME (BJeLR): 0.004515; AUC, modulator BJ.Lmin/NAD+ (BJeLR): 0.1011; AUC, modulator BJ.Lmin (BJeLR): 0.04682; AUC, modulator BJ.NAD+ (BJeLR): 0.08359; AUC, modulator BJ.NMMA (BJeLR): −0.03678; AUC, modulator BJ.Nec-1 (BJeLR): −0.04354; AUC, modulator BJ.Pepstatin (BJeLR): 0.01632; AUC, modulator BJ.TLCK (BJeLR): 0.01399; AUC, modulator BJ.atoc (BJeLR): −0.01038; AUC, modulator BJ.trolox (BJeLR): −0.01808; AUC, modulator BJ.zVAD (BJeLR): 0.06084
